# Measured values from patent US8722849B2, “Polypeptides” (Novo Nordisk A/S, priority 2011, dated 2014).
# Read-outs that look alike come from different tables or passages of the source. Starred links: 1 amine or outer side, 2 acyl side, 3 side chain; linkers in the order of their positions; H or OH if unused. Positions of bridges follow the written chain, without caps; N, C: chain ends. Residues, ends and D or L forms follow the SMILES beside them. *: point of attachment. C20 diacid = O=C(O)CCCCCCCCCCCCCCCCCCC(=O)*; γGlu = O=C(O)[C@H](CCC(=O)[*:2])N[*:1]
# Legend:
# [1] = target: T1, human amylin receptor (amylin 3(a) receptor: human calcitonin receptor + RAMP-3) (Homo sapiens, UniProt O60896+P30988); assay: Assay (II)a functional CRE-luciferase assay, human amylin receptor; assay type: cell-based; details: Table 2; BHK amylin 3(a)-receptor/CRE-luc cells
# T1 construct: expressed in transfected cells; host or cells: BHK570
# T1 sequence (P30988 25-474): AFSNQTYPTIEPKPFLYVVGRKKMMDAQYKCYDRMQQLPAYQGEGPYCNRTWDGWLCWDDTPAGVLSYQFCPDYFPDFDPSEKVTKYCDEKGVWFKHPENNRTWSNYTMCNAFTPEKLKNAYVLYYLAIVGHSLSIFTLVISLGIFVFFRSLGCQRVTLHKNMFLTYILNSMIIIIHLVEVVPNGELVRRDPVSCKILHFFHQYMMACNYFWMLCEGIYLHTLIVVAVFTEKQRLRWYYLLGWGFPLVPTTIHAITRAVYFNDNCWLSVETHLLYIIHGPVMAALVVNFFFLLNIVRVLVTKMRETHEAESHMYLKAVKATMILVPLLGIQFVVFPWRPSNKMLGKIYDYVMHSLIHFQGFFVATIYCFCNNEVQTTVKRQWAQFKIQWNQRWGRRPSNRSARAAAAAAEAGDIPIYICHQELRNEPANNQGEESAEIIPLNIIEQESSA
# T1 sequence (O60896 24-148 partner): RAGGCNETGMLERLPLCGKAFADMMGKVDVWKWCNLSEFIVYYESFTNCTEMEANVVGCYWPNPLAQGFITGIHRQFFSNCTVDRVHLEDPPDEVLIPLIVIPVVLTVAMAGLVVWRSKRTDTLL
# [2] = target: T2, human calcitonin receptor (Homo sapiens, UniProt P30988); assay: Assay (II)a functional CRE-luciferase assay, human calcitonin receptor; assay type: cell-based; details: Table 7; human calcitonin (CTa) receptor
# T2 construct: expressed in transfected cells; host or cells: BHK570
# T2 sequence (P30988 25-474): T1 sequence (P30988 25-474)
# [3] = Assay (III) ThT fibrillation assay for physical stability; assay type: physicochemical
# Summary of the method: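 Freshly prepared formulations, pH-adjusted, with 1 μM ThT; four or eight replicates incubated at 37 °C under 960 rpm orbital shaking. Fluorescence (ex 444/em 485 nm) read every 20 min; […]. Peptide concentration measured by RP-HPLC before and after the run.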
# [4] = Assay (IV) determination of solubility; assay type: physicochemical
# Summary of the method: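 Stock ~500 nmol/ml in water; 1:1 with 100 mM buffer, pH 3.0–8.0 (glycylglycine ≤5.0, bistrispropane ≥6.0); 18 h RT; spin; HPLC quantitation of soluble polypeptide.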
# [5] = bistrispropane buffer, pH 6, pH 6.0, read-out: Solubility pH 6.0
# [6] = bistrispropane buffer, pH 6.5, pH 6.5, read-out: Solubility pH 6.5
# [7] = bistrispropane buffer, pH 7, pH 7.0, read-out: Solubility pH 7.0
# [8] = bistrispropane buffer, pH 7.5, pH 7.5, read-out: Solubility pH 7.5
# [9] = bistrispropane buffer, pH 8, pH 8.0, read-out: Solubility pH 8.0
# [10] = glycylglycine buffer, pH 3, pH 3.0, read-out: Solubility pH 3.0
# [11] = glycylglycine buffer, pH 4, pH 4.0, 18 hours at room temperature, Table 2, read-out: Solubility pH 4.0
# [12] = glycylglycine buffer, pH 4, pH 4.0, read-out: Solubility pH 4.0
# [13] = glycylglycine buffer, pH 5, pH 5.0, read-out: Solubility pH 5.0
SMILES,EC50 [1],EC50 [2],ThT pH 4.0 lag time ([3]; ThT fibrillation assay),ThT pH 4.0 lag time (h) ([3]; ThT fibrillation assay),"solubility at 18 h [4, 5]","solubility at 18 h [4, 6]","solubility at 18 h [4, 7]","solubility at 18 h [4, 8]","solubility at 18 h [4, 9]","solubility at 18 h [4, 10]","solubility at 18 h [4, 11]","solubility at 18 h [4, 12]","solubility at 18 h [4, 13]",ThT pH 4.0 lag time ([3]; Table 8),ThT pH 4.0 lag time ([3]; Table 9),"solubility at 18 h ([4]; bistrispropane buffer, pH 7, pH 7.0, 18 hours at room temperature, Table 3, read-out: Solubility pH 7.0)","solubility at 18 h ([4]; bistrispropane buffer, pH 7, pH 7.0, Table 8, read-out: Solubility pH 7.0)","solubility at 18 h ([4]; bistrispropane buffer, pH 7, pH 7.0, Table 9, read-out: Solubility pH 7.0)","solubility at 18 h ([4]; bistrispropane buffer, pH 7.5, pH 7.5, Table 9, read-out: Solubility pH 7.5)"
"CC[C@H](C)[C@H](NC(=O)[C@@H]1CCCN1C(=O)CNC(=O)[C@H](Cc1ccccc1)NC(=O)[C@H](CC(N)=O)NC(=O)[C@H](CO)NC(=O)[C@H](CO)NC(=O)[C@H](CO)NC(=O)[C@H](Cc1c[nH]cn1)NC(=O)[C@H](CCCNC(=N)N)NC(=O)[C@H](CC(C)C)NC(=O)[C@H](Cc1ccccc1)NC(=O)[C@H](CCC(=O)O)NC(=O)[C@H](C)NC(=O)[C@H](CC(C)C)NC(=O)[C@H](CCCNC(=N)N)NC(=O)[C@H](CCC(N)=O)NC(=O)[C@@H](NC(=O)[C@H](C)NC(=O)[C@@H]1CSSC[C@H](NC(=O)[C@H](Cc2c[nH]cn2)NC(=O)CC[C@H](NC(=O)CCCCCCCCCCCCCCCCCCC(=O)O)C(=O)O)C(=O)N[C@@H](CC(N)=O)C(=O)N[C@@H]([C@@H](C)O)C(=O)N[C@@H](C)C(=O)N[C@@H]([C@@H](C)O)C(=O)N1)[C@@H](C)O)C(=O)N[C@@H](CC(C)C)C(=O)N[C@@H](CO)C(=O)N[C@@H](CO)C(=O)N[C@H](C(=O)N[C@@H](CC(N)=O)C(=O)N[C@H](C(=O)NCC(=O)N[C@@H](CO)C(=O)N[C@@H](Cc1c[nH]cn1)C(=O)N[C@H](C(=O)N[C@@H](Cc1ccc(O)cc1)C(N)=O)[C@@H](C)O)C(C)C)[C@@H](C)O [Example 111, N-alpha-[(S)-4-Carboxy-4-(19-carboxynonadecanoylamino)butyryl]-[His1,Glu14,Arg17,Ser21,Ser28,Ser29,His35]-pramlintide] ({C20 diacid-γGlu}-HCNTATCATQRLAEFLRHSSSNFGPILSSTNVGSHTY-NH2; disulfide 2-7 (inferred))",394 pM,570 pM,>45 h,>45 h,2 µM,1 µM,1 µM,1 µM,3 µM,> 200 µM,> 200 µM,> 200 µM,> 200 µM,,,,,,
"CC[C@H](C)[C@H](NC(=O)[C@@H]1CCCN1C(=O)CNC(=O)[C@H](Cc1ccccc1)NC(=O)[C@H](CC(N)=O)NC(=O)[C@H](CC(N)=O)NC(=O)[C@H](CO)NC(=O)[C@H](CO)NC(=O)[C@H](Cc1c[nH]cn1)NC(=O)[C@H](Cc1c[nH]cn1)NC(=O)[C@H](CC(C)C)NC(=O)[C@H](Cc1ccccc1)NC(=O)[C@H](CCC(=O)O)NC(=O)[C@H](C)NC(=O)[C@H](CC(C)C)NC(=O)[C@H](CCCNC(=N)N)NC(=O)[C@H](CCC(N)=O)NC(=O)[C@@H](NC(=O)[C@H](C)NC(=O)[C@@H]1CSSC[C@H](NC(=O)[C@H](CCCCN)NC(=O)CC[C@H](NC(=O)CCCCCCCCCCCCCCCCCCC(=O)O)C(=O)O)C(=O)N[C@@H](CC(N)=O)C(=O)N[C@@H]([C@@H](C)O)C(=O)N[C@@H](C)C(=O)N[C@@H]([C@@H](C)O)C(=O)N1)[C@@H](C)O)C(=O)N[C@@H](CC(C)C)C(=O)N1CCC[C@H]1C(=O)N1CCC[C@H]1C(=O)N[C@H](C(=O)N[C@@H](CC(N)=O)C(=O)N[C@H](C(=O)NCC(=O)N[C@@H](CO)C(=O)N[C@@H](CCCNC(=N)N)C(=O)N[C@H](C(=O)N[C@@H](Cc1ccc(O)cc1)C(N)=O)[C@@H](C)O)C(C)C)[C@@H](C)O [Example 112, N-alpha-[(S)-4-Carboxy-4-(19-carboxynonadecanoylamino)butyryl]-[Glu14,His17,Arg35]-pramlintide] ({C20 diacid-γGlu}-KCNTATCATQRLAEFLHHSSNNFGPILPPTNVGSRTY-NH2; disulfide 2-7 (inferred); C-terminus assumed)",98 pM,104 pM,>45 h,>45 h,> 200 µM,161 µM,23 µM,4 µM,2 µM,> 200 µM,> 200 µM,> 200 µM,> 200 µM,,,,,,
"CC[C@H](C)[C@H](NC(=O)[C@@H]1CCCN1C(=O)CNC(=O)[C@H](Cc1ccccc1)NC(=O)[C@H](CC(N)=O)NC(=O)[C@H](CC(N)=O)NC(=O)[C@H](CO)NC(=O)[C@H](CO)NC(=O)[C@H](Cc1c[nH]cn1)NC(=O)[C@H](Cc1c[nH]cn1)NC(=O)[C@H](CC(C)C)NC(=O)[C@H](Cc1ccccc1)NC(=O)[C@H](CCC(=O)O)NC(=O)[C@H](C)NC(=O)[C@H](CC(C)C)NC(=O)[C@H](CCCNC(=N)N)NC(=O)[C@H](CCC(N)=O)NC(=O)[C@@H](NC(=O)[C@H](C)NC(=O)[C@@H]1CSSC[C@H](NC(=O)[C@H](CCCCN)NC(=O)CC[C@H](NC(=O)CCCCCCCCCCCCCCCCCCC(=O)O)C(=O)O)C(=O)N[C@@H](CC(N)=O)C(=O)N[C@@H]([C@@H](C)O)C(=O)N[C@@H](C)C(=O)N[C@@H]([C@@H](C)O)C(=O)N1)[C@@H](C)O)C(=O)N[C@@H](CC(C)C)C(=O)N1CCC[C@H]1C(=O)N1CCC[C@H]1C(=O)N[C@H](C(=O)N[C@@H](CC(N)=O)C(=O)N[C@H](C(=O)NCC(=O)N[C@@H](CO)C(=O)N[C@@H](CCCCN)C(=O)N[C@H](C(=O)N[C@@H](Cc1ccc(O)cc1)C(N)=O)[C@@H](C)O)C(C)C)[C@@H](C)O [Example 113, N-alpha-[(S)-4-Carboxy-4-(19-carboxynonadecanoylamino)butyryl]-[Glu14,His17,Lys35]-pramlintide] ({C20 diacid-γGlu}-KCNTATCATQRLAEFLHHSSNNFGPILPPTNVGSKTY-NH2; disulfide 2-7 (inferred))",134 pM,130 pM,>45 h,>45 h,> 200 µM,> 200 µM,> 200 µM,188 µM,124 µM,> 200 µM,> 200 µM,> 200 µM,> 200 µM,>45 h,>45 h,> 200 µM,> 200 µM,> 200 µM,188 µM
